Data reported in patent publication US20220202818A1, “COMBINATION WITH CHECKPOINT INHIBITORS TO TREAT CANCER” (The Regents of the University of Michigan, priority 2019, published 2022).

Legend:
KPC pancreatic tumors = assay: In vivo efficacy of MOL-211 alone and with PD-1 antibody in mice bearing KPC pancreatic tumors
Procedure: In vivo studies were conducted to evaluate the efficacy of MOL-211 alone and in combination with PD-1 antibody in mice bearing KPC pancreatic tumors (FIG. 1A-FIG. 1E). Mice were treated daily with MOL-211 (50 mg/kg) administered by oral gavage; anti-PD-1 antibody was administered twice a week via IP injection. Mice were analyzed subsequent to tumor implantation for over 90 days using a vehicle control; MOL-211 at 50 mg/kg; anti-PD-1 antibody at 10 mg/kg; and a combination of MOL-211 and anti-PD-1.
A partial responder (PR) is defined as a tumor that regressed to 50% of the baseline tumor volume. A complete responder (CR) is defined as a tumor below the limits of palpation (40 mg). The ΔT/ΔC ratio is the ratio of tumor volume change (treated/control) from first day of treatment to last day of treatment. Median ILS represents median increase in lifespan.

PD-L1 = assay: Western blot of PD-L1 protein in KPC-2 cells treated in vitro; format: cell-based; conditions: KPC-2 cells in culture; 10 micromolar; 24 and 48 hours; compared to DMSO
Procedure: KPC-2 cells were also grown in culture and treated for either 24 or 48 hours with DMSO or MOL-211 at a final concentration of 10 micromolar. Cells were harvested and manually homogenized in lysis buffer [25 mmol/L Tris-HCl (pH7.6), 150 mmol/L NaCl, 1% Nonidet P-40, 10% glycerol, 1 mmol/L dithiothreitol, and protease and phosphatase inhibitors], rocked for 30 minutes at 4° C., and centrifuged at 14,000 rpm for 20 min at 4° C. Protein concentration was determined by BioRad Protein Assays and lysates were subsequently subjected to SDS gel electrophoresis. Proteins were transferred to polyvinylidene fluoride membranes and probed with a primary antibody recognizing PD-L1 (Abcam, Cambridge, UK) and beta-actin. After incubation with anti-rabbit HRP-linked secondary antibody (Jackson ImmunoResearch Laboratories, West Grove, Pa.), proteins were detected using chemiluminescence (GE Healthcare, Chicago, Ill.).

[1] = test system: EMT-6 (murine mammary carcinoma) tumors; assay: In vivo study in female BALB/c mice bearing EMT-6 (murine mammary carcinoma) tumors; conditions: EMT-6 tumor-bearing mice; FIG. 6B
Procedure: (§1) Female 6- to 7-week old C3H mice or BALB/c mice were implanted subcutaneously with 1×10^6 cultured SCC7 cells or CT-26 (murine colorectal carcinoma) cells into the region of the right axilla. Female 6- to 7-week old BALB/c mice were implanted with 2×10^6 cultured EMT-6 (murine mammary carcinoma) cells subcutaneously into the mammary fat pad. Mice were randomized into treatment groups and treatments initiated when tumors reached 60 to 100 mg. MOL-211 was administered daily by oral gavage at a dose of 50 mg/kg for the duration of the study and was prepared as a 5 mg/mL solution in 1:2 PG:1% Tween80/Na3PO4, based upon individual animal body weight (0.2 mL/20 g). PD-1 antibody was purchased from BioXcell (Lebanon, N.H.) and administered intraperitoneally (IP) at a dose of 10 mg/kg every third day. Subcutaneous tumor volume and body weights were measured three times a week. Tumor volumes were calculated by measuring two perpendicular diameters with calipers and using the formula: tumor volume=(length×width^2)/2. Individual animals were dosed until progression, defined as the time at which tumor burden reached 1000 mg. […] Animal body weight was monitored three times weekly (FIG. 4D, FIG. 5D, FIG. 6C).

[2] = test system: SCC7 head and neck tumors; assay: In vivo study in C3H mice bearing SCC7 head and neck tumors
Procedure: as §1

[3] = test system: CT-26 (murine colorectal carcinoma) tumors; assay: In vivo study in BALB/c mice bearing CT-26 (murine colorectal carcinoma) tumors; conditions: FIG. 5A
Procedure: as §1

Compound: CS(=O)(=O)Nc1cc(-c2ccc3ncnc(Nc4ccc(F)c(Cl)c4)c3c2)cnc1Cl [MOL-211, N-(2-chloro-5-(4-((3-chloro-4-fluorophenyl)amino)quinazolin-6-yl)pyridin-3-yl)methanesulfonamide]
- Median ILS (median increase in lifespan) (KPC pancreatic tumors): 82%
- ΔT/ΔC (Day 19) (KPC pancreatic tumors; ratio of tumor volume change (treated/control) from first to last day of treatment, MOL-211 50 mg/kg daily oral gavage, PD-1 antibody 10 mg/kg/kg IP): 21%
- CRs (complete responders) (KPC pancreatic tumors; tumor below the limits of palpation (40 mg)): 0%
- PRs (partial responders) (KPC pancreatic tumors; tumor regressed to 50% of baseline tumor volume): 0
- PD-L1 protein levels (western blot) (PD-L1): reduced PD-L1 protein levels
- reduction in tumor volume compared to vehicle control [1]: did not result in a statistically significant reduction in tumor volume
- calculated increase in lifespan (ILS) ([2]; C3H mice bearing SCC7 tumors, MOL-211 50 mg/kg, PD-1 antibody 10 mg/kg, FIG. 4A): 206%
- reduction in mean tumor volumes ([2]; mice bearing SCC7 tumors, compared with PD-1 antibody monotherapy, FIG. 4B): superior to PD-1 antibody monotherapy
- calculated increase in lifespan (ILS) ([3]; BALB/c mice bearing CT-26 tumors, MOL-211 50 mg/kg, PD-1 antibody 10 mg/kg): 22%
- increase in survival ([3]; mice bearing CT-26 tumors): Neither single agent nor combination treatment with MOL-211 and PD-1 antibody resulted in a therapeutically meaningful increase in survival
